Target: T1, IGFR kinase (Homo sapiens, UniProt P08069)
T1 construct: purchased Millipore
Assay: Enzyme assay (c), IGFR kinase, Caliper LabChip
Format: biochemical
Conditions: 30 nM IGFR kinase, 6 uM ATP, 3 uM peptide mix; read-out: IGFR IC50
Description: For Echo dosing the solvent was 100% DMSO. A master plate was prepared with 40 ul of 10 mM stock solution of the test compound in DMSO in quadrant 1 of a Labcyte 384 well plate. A 1 in 100 dilution was made from quadrant 1 into quadrant 2 by removing 0.4 ul and adding it to 39.6 ul of DMSO. Subsequent 1 in 100 dilutions were made into quadrant 3 from quadrant 2 and quadrant 4 from quadrant 3.
Multiple 2.5 nl droplets were dispensed from each quadrant of the master plate to generate the dose range that was required in the test. The dose range most commonly used was as follows: 100 uM, 30 uM, 10 uM, 3 uM, 1 uM, 0.3 uM, 0.1 uM, 0.03 uM, 0.01 uM, 0.003 uM, 0.001 uM, 0.0001 uM. Each well was backfilled with dimethyl sulfoxide (DMSO) to a total volume of 120 nl, such that when the enzyme and substrate mix was added the final DMSO concentration was 1%.
DMSO was added to max control wells as 120 nl, minimum control wells were treated with 120 nl of compound at a concentration that inhibited the enzyme activity 100%.
Integration of the substrate and product peaks was carried out using Caliper LabChip software and IC50 curves were calculated using Origin™ software.

T1 sequence (P08069 31-1367): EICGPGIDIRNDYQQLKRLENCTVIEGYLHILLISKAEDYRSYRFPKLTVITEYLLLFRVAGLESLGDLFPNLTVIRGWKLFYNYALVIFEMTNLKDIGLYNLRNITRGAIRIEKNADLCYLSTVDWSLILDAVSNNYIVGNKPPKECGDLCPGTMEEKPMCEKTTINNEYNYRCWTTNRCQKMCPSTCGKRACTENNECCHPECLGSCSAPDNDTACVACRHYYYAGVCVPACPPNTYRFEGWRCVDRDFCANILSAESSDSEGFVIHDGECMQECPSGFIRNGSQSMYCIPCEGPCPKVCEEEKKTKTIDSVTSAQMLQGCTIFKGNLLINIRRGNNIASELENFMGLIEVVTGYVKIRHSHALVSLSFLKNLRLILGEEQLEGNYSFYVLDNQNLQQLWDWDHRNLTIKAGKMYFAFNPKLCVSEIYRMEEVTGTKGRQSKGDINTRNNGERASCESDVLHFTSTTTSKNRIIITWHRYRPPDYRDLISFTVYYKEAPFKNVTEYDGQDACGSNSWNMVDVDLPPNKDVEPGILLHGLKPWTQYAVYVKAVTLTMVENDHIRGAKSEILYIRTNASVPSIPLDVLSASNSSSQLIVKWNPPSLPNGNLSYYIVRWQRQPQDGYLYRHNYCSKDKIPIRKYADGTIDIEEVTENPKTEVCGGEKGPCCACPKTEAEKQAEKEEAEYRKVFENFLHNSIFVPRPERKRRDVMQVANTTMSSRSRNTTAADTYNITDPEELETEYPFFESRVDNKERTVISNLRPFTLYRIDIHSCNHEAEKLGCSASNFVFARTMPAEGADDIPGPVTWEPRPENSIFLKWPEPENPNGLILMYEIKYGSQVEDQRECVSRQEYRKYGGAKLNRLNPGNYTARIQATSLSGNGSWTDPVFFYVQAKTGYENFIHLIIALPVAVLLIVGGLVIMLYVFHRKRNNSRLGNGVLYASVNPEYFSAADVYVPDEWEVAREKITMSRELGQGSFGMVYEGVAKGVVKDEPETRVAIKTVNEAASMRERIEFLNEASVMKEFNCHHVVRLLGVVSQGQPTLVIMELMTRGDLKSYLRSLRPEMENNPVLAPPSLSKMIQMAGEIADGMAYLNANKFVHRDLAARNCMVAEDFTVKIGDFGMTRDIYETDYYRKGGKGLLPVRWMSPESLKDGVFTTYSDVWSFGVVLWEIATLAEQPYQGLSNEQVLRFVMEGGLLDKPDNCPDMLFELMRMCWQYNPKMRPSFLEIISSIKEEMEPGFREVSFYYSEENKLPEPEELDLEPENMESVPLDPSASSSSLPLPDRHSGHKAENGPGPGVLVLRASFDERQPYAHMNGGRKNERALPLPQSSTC

| SMILES | IC50 |
| --- | --- |
| CC(=O)N1CCN(c2cccc(Nc3ncc(Cl)c(-c4cnc5ccccn45)n3)c2C)CC1 [Example 3.37, 1-[4-[3-[(5-chloro-4-imidazo[1,2-a]pyridin-3-yl-pyrimidin-2-yl)amino]-2-methyl-phenyl]piperazin-1-yl]ethanone] | 12 nM |
| COc1cc(N2CCN(C(C)=O)C(CO)C2)ccc1Nc1ncc(Cl)c(-c2cnc3ccccn23)n1 (stereo not drawn) [Example 3.38, 1-[4-[4-[(5-chloro-4-imidazo[1,2-a]pyridin-3-yl-pyrimidin-2-yl)amino]-3-methoxy-phenyl]-2-(hydroxymethyl)piperazin-1-yl]ethanone] | 21 nM |
| COc1cc(C(C)C(=O)N2CCOCC2)ccc1Nc1ncc(Cl)c(-c2cnc3ccccn23)n1 (stereo not drawn) [Example 3.39, 2-[4-[(5-chloro-4-imidazo[1,2-a]pyridin-3-yl-pyrimidin-2-yl)amino]-3-methoxy-phenyl]-1-morpholino-propan-1-one] | 31 nM |
| COc1cc(N2CCN(C(C)=O)C[C@@H](O)C2)ccc1Nc1ncc(Cl)c(-c2cnc3ccccn23)n1 [Example 3.40, 1-[(6S)-4-[4-[(5-chloro-4-imidazo[1,2-a]pyridin-3-yl-pyrimidin-2-yl)amino]-3-methoxy-phenyl]-6-hydroxy-1,4-diazepan-1-yl]ethanone] | 24 nM |
| COc1cc(C(C)C(=O)N2CCN(CCO)CC2)ccc1Nc1ncc(Cl)c(-c2cnc3ccccn23)n1 (stereo not drawn) [Example 3.41, 2-[4-[(5-chloro-4-imidazo[1,2-a]pyridin-3-yl-pyrimidin-2-yl)amino]-3-methoxy-phenyl]-1-[4-(2-hydroxyethyl)piperazin-1-yl]propan-1-one] | 16 nM |
| COc1cc(C(C)C(=O)N2CCNCC2)ccc1Nc1ncc(Cl)c(-c2cnc3ccccn23)n1 (stereo not drawn) [Example 3.42, 2-[4-[(5-chloro-4-imidazo[1,2-a]pyridin-3-yl-pyrimidin-2-yl)amino]-3-methoxy-phenyl]-1-piperazin-1-yl-propan-1-one] | 25 nM |
| COc1cc(N2CCCC2)ccc1Nc1ncc(Cl)c(-c2cnc3ccccn23)n1 [Example 3.44, 5-chloro-4-imidazo[1,2-a]pyridin-3-yl-N-(2-methoxy-4-pyrrolidin-1-yl-phenyl)pyrimidin-2-amine] | 0.3 nM |
| COCCN1CCN(c2ccc(Nc3ncc(Cl)c(-c4cnc5ccccn45)n3)c(OC)c2)CC1 [Example 3.46, 5-chloro-4-imidazo[1,2-a]pyridin-3-yl-N-[2-methoxy-4-[4-(2-methoxyethyl)piperazin-1-yl]phenyl]pyrimidin-2-amine] | 6 nM |
| COc1cc(N2CC[C@H](O)C2)ccc1Nc1ncc(Cl)c(-c2cnc3ccccn23)n1 [Example 3.47, (3S)-1-[4-[(5-chloro-4-imidazo[1,2-a]pyridin-3-yl-pyrimidin-2-yl)amino]-3-methoxy-phenyl]pyrrolidin-3-ol] | 32 nM |
| COc1cc(N2CCCOCC2)ccc1Nc1ncc(Cl)c(-c2cnc3ccccn23)n1 [Example 3.48, 5-chloro-4-imidazo[1,2-a]pyridin-3-yl-N-[2-methoxy-4-(1,4-oxazepan-4-yl)phenyl]pyrimidin-2-amine] | 25 nM |
| COc1cc(N2CC[C@@H](O)C2)ccc1Nc1ncc(Cl)c(-c2cnc3ccccn23)n1 [Example 3.49, (3R)-1-[4-[(5-chloro-4-imidazo[1,2-a]pyridin-3-yl-pyrimidin-2-yl)amino]-3-methoxy-phenyl]pyrrolidin-3-ol] | 19 nM |
| COc1cc(OC[C@H]2CCCN2)ccc1Nc1ncc(Cl)c(-c2cnc3ccccn23)n1 [Example 6.1, 5-chloro-4-imidazo[1,2-a]pyridin-3-yl-N-[2-methoxy-4-[[(2R)-pyrrolidin-2-yl]methoxy]phenyl]pyrimidin-2-amine] | 12 nM |
| COc1cc(OC[C@@H]2CCCN2)ccc1Nc1ncc(Cl)c(-c2cnc3ccccn23)n1 [Example 6.2, 5-chloro-4-imidazo[1,2-a]pyridin-3-yl-N-[2-methoxy-4-[[(2S)-pyrrolidin-2-yl]methoxy]phenyl]pyrimidin-2-amine] | 14 nM |
| COc1ccc(OC[C@@H]2CCCN2)cc1Nc1ncc(Cl)c(-c2cnc3ccccn23)n1 [Example 6.3, 5-chloro-4-imidazo[1,2-a]pyridin-3-yl-N-[2-methoxy-5-[[(2S)-pyrrolidin-2-yl]methoxy]phenyl]pyrimidin-2-amine] | 18 nM |
| COc1ccc(OC[C@H]2CCCN2)cc1Nc1ncc(Cl)c(-c2cnc3ccccn23)n1 [Example 6.4, 5-chloro-4-imidazo[1,2-a]pyridin-3-yl-N-[2-methoxy-5-[[(2R)-pyrrolidin-2-yl]methoxy]phenyl]pyrimidin-2-amine] | 12 nM |
| COc1cc(O[C@@H]2CCNC2)ccc1Nc1ncc(Cl)c(-c2cnc3ccccn23)n1 [Example 6.5, 5-chloro-4-imidazo[1,2-a]pyridin-3-yl-N-[2-methoxy-4-[(3R)-pyrrolidin-3-yl]oxy-phenyl]pyrimidin-2-amine] | 11 nM |
| COc1cc(O[C@H]2CCNC2)ccc1Nc1ncc(Cl)c(-c2cnc3ccccn23)n1 [Example 6.6, 5-chloro-4-imidazo[1,2-a]pyridin-3-yl-N-[2-methoxy-4-[(3S)-pyrrolidin-3-yl]oxy-phenyl]pyrimidin-2-amine] | 14 nM |
| COc1cc(OC2CCN(S(C)(=O)=O)CC2)ccc1Nc1ncc(Cl)c(-c2cnc3ccccn23)n1 [Example 8, 5-chloro-4-imidazo[1,2-a]pyridin-3-yl-N-[2-methoxy-4-[(1-methylsulfonyl-4-piperidyl)oxy]phenyl]pyrimidin-2-amine] | 20 nM |
| COc1cc(OC2CCN(C(=O)C(C)O)CC2)ccc1Nc1ncc(Cl)c(-c2cnc3ccccn23)n1 (stereo not drawn) [Example 9, 1-[4-[4-[(5-chloro-4-imidazo[1,2-a]pyridin-3-yl-pyrimidin-2-yl)amino]-3-methoxy-phenoxy]-1-piperidyl]-2-hydroxy-propan-1-one] | 21 nM |
| COc1cc(OC2CCN(C(=O)[C@H](C)O)CC2)ccc1Nc1ncc(Cl)c(-c2cnc3ccccn23)n1 [Example 9A, (2S)-1-[4-[4-[(5-chloro-4-imidazo[1,2-a]pyridin-3-yl-pyrimidin-2-yl)amino]-3-methoxy-phenoxy]-1-piperidyl]-2-hydroxy-propan-1-one] | 18 nM |
| COc1cc(O[C@@H]2CCN(C(C)=O)C2)ccc1Nc1ncc(Cl)c(-c2cnc3ccccn23)n1 [Example 10, 1-[(3R)-3-[4-[(5-chloro-4-imidazo[1,2-a]pyridin-3-yl-pyrimidin-2-yl)amino]-3-methoxy-phenoxy]pyrrolidin-1-yl]ethanone] | 20 nM |
| COc1cc(O[C@@H]2CCN(S(C)(=O)=O)C2)ccc1Nc1ncc(Cl)c(-c2cnc3ccccn23)n1 [Example 11, 5-chloro-4-imidazo[1,2-a]pyridin-3-yl-N-[2-methoxy-4-[(3R)-1-methylsulfonylpyrrolidin-3-yl]oxy-phenyl]pyrimidin-2-amine] | 18 nM |
| COc1cc(O[C@@H]2CCN(C(=O)[C@H](C)O)C2)ccc1Nc1ncc(Cl)c(-c2cnc3ccccn23)n1 [Example 12A, (2S)-1-[(3R)-3-[4-[(5-chloro-4-imidazo[1,2-a]pyridin-3-yl-pyrimidin-2-yl)amino]-3-methoxy-phenoxy]pyrrolidin-1-yl]-2-hydroxy-propan-1-one] | 13 nM |
| COc1cc(O[C@H]2CCN(C(C)=O)C2)ccc1Nc1ncc(Cl)c(-c2cnc3ccccn23)n1 [Example 13, 1-[(3S)-3-[4-[(5-chloro-4-imidazo[1,2-a]pyridin-3-yl-pyrimidin-2-yl)amino]-3-methoxy-phenoxy]pyrrolidin-1-yl]ethanone] | 20 nM |
| COc1cc(O[C@H]2CCN(S(C)(=O)=O)C2)ccc1Nc1ncc(Cl)c(-c2cnc3ccccn23)n1 [Example 14, 5-chloro-4-imidazo[1,2-a]pyridin-3-yl-N-[2-methoxy-4-[(3S)-1-methylsulfonylpyrrolidin-3-yl]oxy-phenyl]pyrimidin-2-amine] | 19 nM |
| COc1cc(O[C@H]2CCN(C(=O)[C@H](C)O)C2)ccc1Nc1ncc(Cl)c(-c2cnc3ccccn23)n1 [Example 15A, (2S)-1-[(3S)-3-[4-[(5-chloro-4-imidazo[1,2-a]pyridin-3-yl-pyrimidin-2-yl)amino]-3-methoxy-phenoxy]pyrrolidin-1-yl]-2-hydroxy-propan-1-one] | 36 nM |
| COc1cc(OC[C@@H]2CCCN2C(C)=O)ccc1Nc1ncc(Cl)c(-c2cnc3ccccn23)n1 [Example 16, 1-[(2S)-2-[[4-[(5-chloro-4-imidazo[1,2-a]pyridin-3-yl-pyrimidin-2-yl)amino]-3-methoxy-phenoxy]methyl]pyrrolidin-1-yl]ethanone] | 32 nM |
| COc1ccc(OC[C@H]2CCCN2C(C)=O)cc1Nc1ncc(Cl)c(-c2cnc3ccccn23)n1 [Example 17, 1-[(2R)-2-[[3-[(5-chloro-4-imidazo[1,2-a]pyridin-3-yl-pyrimidin-2-yl)amino]-4-methoxy-phenoxy]methyl]pyrrolidin-1-yl]ethanone] | 58 nM |
| COc1cc(N2CCNC(C(=O)N(C)C)C2)ccc1Nc1ncc(Cl)c(-c2cnc3ccccn23)n1 (stereo not drawn) [Example 19, 4-[4-[(5-chloro-4-imidazo[1,2-a]pyridin-3-yl-pyrimidin-2-yl)amino]-3-methoxy-phenyl]-N,N-dimethyl-piperazine-2-carboxamide] | 11 nM |
| COc1cc(CN2CC[C@H](O)C2)ccc1Nc1ncc(Cl)c(-c2cnc3ccccn23)n1 [Example 20, (3S)-1-[[4-[(5-chloro-4-imidazo[1,2-a]pyridin-3-yl-pyrimidin-2-yl)amino]-3-methoxy-phenyl]methyl]pyrrolidin-3-ol] | 19 nM |

Source: patent publication US20100105655A1, “NOVEL COMPOUNDS 515” (ASTRAZENECA AB, priority 2008, published 2010)
